In patent publication US20220177561A1, “Models and Methods Useful for the Treatment of Serrated Colorectal Cancer” (Sanford Burnham Prebys Medical Discovery Institute, priority 2018, published 2022):

Experiments:
[1] = tested on: serrated tumors of DKO^IEC mice; experiment: TGF-βR1-specific inhibition experiment in DKO^IEC mice; type: in vivo, mouse
Experimental: For CD8+ T cell depletion (FIG. 4), 10-week-old LKO^IEC mice were injected intraperitoneally with 200 μg of anti-CD8 antibody (clone 2.43) or control IgG twice a week for 5 weeks until they were sacrificed. For the TGF-βR1-specific inhibition experiment, 10-week-old DKO^IEC mice were treated twice a day with a dose of 10 mg of galunisertib (Tauriello et al., 2018) per os for 6 weeks until they were sacrificed. Control mice were treated with vehicle. For checkpoint immunotherapy, either 10-week-old or 13-week-old DKO^IEC mice were injected intraperitoneally with a dose of 10 mg/kg (body mass) of anti-PD-L1 antibody (clone 6E11) twice a week for 3 weeks until they were sacrificed. For the combination therapy of anti-PD-L1 antibody and TGF-βR1-specific inhibitor, 23-week-old DKO^IEC mice were treated twice a day with a dose of 10 mg of galunisertib per os and injected intraperitoneally with a dose of 10 mg/kg (body mass) of anti-PD-L1 antibody twice a week for 3 weeks until they were sacrificed. Anti-PD-L1 antibody was provided by de Sauvage FJ (Genentech).
Organs were isolated, rinsed in ice-cold PBS, fixed in 10% neutral buffered formalin overnight at 4° C., dehydrated, and embedded in paraffin. Sections (5 μm) were stained with hematoxylin and eosin (H&E). For immunohistochemistry, sections were deparaffinized, rehydrated, and then treated for antigen retrieval. After blocking in Protein Block Serum-Free solutions (DAKO), tissues were incubated with primary antibody overnight at 4° C. followed by incubation with biotinylated secondary antibody. Endogenous peroxidase was quenched in 3% H2O2 in water for 10 min at room temperature. Antibodies were visualized with avidin/biotin complex (e.g., Vectastain Elite; Vector Laboratories) using diaminobenzidine as the chromagen. For immunofluorescence, fresh frozen organs were embedded in Tissue-Tek OCT compound (e.g., Sakura) and section of 10 μm were fixed in methanol, washed with PBS and then incubated with the primary antibodies. Washed sections were incubated with Alexa-conjugated secondary antibodies (e.g., Life Technologies) and examined with a Zeiss LSM 710 NLO Confocal Microscope. In situ hybridization for murine Ereg was carried out using RNAscope Multiplex Fluorescent Assay kit (Advanced Cell Diagnostics) following manufacturer's instructions. The probe corresponding to CDS region of murine Ereg (Accession #: NM_007950.2, probe region: 116-1496; Advanced Cell Diagnostics; Cat #: 437981). Cell death was analyzed using the In-Situ Cell Death Detection kit, TMR red (Thermo) for TUNEL. Masson's Trichrome staining was carried out following manufacturer's instructions (Sigma HT15-1KT).
Flow cytometry experiments were performed using fresh small intestinal tissue and organoid preparations. For the analyses of small intestinal tissue, a half part of duodenum, jejunum, and ileum was used for quantitative flow cytometry analysis of immune cell population of lamina propria. Briefly, small intestines were rinsed in cold PBS, minced into small pieces, incubated in HBSS with EDTA (5 mM) and digested with collagenase (0.05 mg/ml) for 30 min at 37° C., followed by a discontinuous Percoll separation method (40 and 75%) to purify immune cells. The cells concentrated at the interface were collected and washed in cold PBS. Red blood cells were removed with lysing buffer (BD Pharm Lyse) and live cells were counted using Trypan blue and then saturated with mouse Fc Block (purified anti-mouse CD16/CD32; 1:50; clone 2.4G2; BD Pharmingen) 30 min at 4° C. before incubating with specific dyed antibodies.
Total RNA from mouse tissues and cultured organoids was extracted using the TRIZOL reagent (e.g., Invitrogen) and the RNeasy Mini Kit (e.g., Qiagen), followed by DNase treatment. […]

WT organoids = experiment: Interferon response of WT small intestine organoids (3D culture); type: cell-based, mouse
Experimental: (§1) For generation of small intestine organoids, organoids were collected in ice-cold TrypLE solution (e.g., Life Technologies) to remove Matrigel, then pipetted 5 cycles and incubated 5 min at 37° C. to obtain single-cell suspension. Cells were washed twice in PBS 3% FBS and resuspended at room temperature with PBS with 100 μg/ml DNase I for 10 min before staining with anti-H-2Kb (clone AF6-88.5.5.3; eBioscience). For antigen presentation in MODE-K cells, cells were washed in PBS, trypsinized and wash with warm medium. Then, cells were resuspended and stained with anti-H-2Kk (clone 36-7-5; BioLegend) and anti-H-2Dk (clone 15-5-5; BD Pharmingen). Dead cells were excluded after 7-AAD staining. All flow cytometry experiments were performed on a BD LSRFortessa 14-colors analyzer at the Sanford Burnham Prebys Medical Discovery Institute Shared FACS Facility and flow cytometry data were analyzed using FlowJo software (Tree Star Inc.).
(§2) Intestinal epithelial cell (IEC) isolation was performed as described previously Llado et al., Repression of Intestinal Stem Cell Function and Tumorigenesis through Direct Phosphorylation of β-catenin and Yap by PKCζ. Cell Reports (2015) 10, 740-754, with some modification. […] Adenoma fragments were counted after isolation and a total of 250-500 fragments were mixed with 100 μl of growth factor reduced-Matrigel and plated in 12- or 24-well plates. […]

ZKO organoids = experiment: Interferon response of PKCζ-deficient (ZKO) small intestine organoids (3D culture); type: cell-based, mouse; settings: 3 μM for 24 hours then drug-free culture, qRT-PCR
Experimental: as §1, §2

[2] = 10-week-old DKO^IEC mice, 10 mg per os twice a day for 6 weeks
[3] = 10-week-old DKO^IEC mice, 6 weeks

In the case of Cc1cccc(-c2nn3c(c2-c2ccnc4ccc(C(N)=O)cc24)CCC3)n1 [galunisertib], the tumor load [1, 2] was “did not reduce”, the tumor number [1, 2] was “did not reduce” and the tumor size [1, 2] was “did not reduce”. For the same molecule, the “incidence of invasive cancer” value [1, 3] was “especially reduced”, the “progression of SSA/P to the adenocarcinoma stage” value [1, 3] was “suppressed” and the “proportion of PD-L1^+/CD45^+ cells infiltrating DKO^IEC tumors” value ([1]; CD45/PD-L1 staining) was “not affected”. The collagen deposition ([1]; Masson's trichrome staining of small intestinal tumors) was “inhibition”, the “proportion of Th17 cells in the tumors” value ([1]; flow cytometry) was “reduction” and the “proportion of CD8^+ T cells” value ([1]; flow cytometry, DKO^IEC tumors) was “did not significantly change”. For the same molecule, the “proportion of CD11b^+ myeloid cells” value ([1]; flow cytometry, DKO^IEC tumors) was “did not significantly change”, the “proportion of Treg cells” value ([1]; flow cytometry, DKO^IEC tumors) was “did not significantly change” and the “expression of TGF-β-responsive genes, such as Angpt12, Cdkn2b, Il11, and Ereg” value ([1]; qRT-PCR) was “reduced expression”. The “stromal phospho-SMAD2” value ([1]; staining of small intestinal tumors) was “inhibition”.

In the case of Nc1ncn([C@H]2C[C@H](O)[C@@H](CO)O2)c(=O)n1 [5-AZA-CdR, 5-aza-2-deoxycytidine], the “expression of interferon-responsive genes Irf7, Oas1a, Isg15, and Cxcl10” value (WT organoids; 3 μM for 24 hours then drug-free culture, qRT-PCR) was “robustly induced”, the “MHC class I long-chain H-2K^b on the surface” value (WT organoids; flow cytometry) was “upregulated” and the “expression of interferon-responsive genes Irf7, Oas1a, Isg15, and Cxcl10” value (ZKO organoids) was “severely abrogated”.
